Laboratory results taken from ChEMBL document CHEMBL3600379, “Radiosynthesis and preliminary PET evaluation of glycogen synthase kinase 3β (GSK-3β) inhibitors containing [(11)C]methylsulfanyl, [(11)C]methylsulfinyl or [(11)C]methylsulfonyl groups” (Bioorg Med Chem Lett, 2015).

What was measured:
Format in all cases: ADME, organism-based
[1] = tested on: Brain; assay: Drug uptake in brain of cold water-induced mouse stress model at 15 to 20 MBq, iv measured at 30 mins by PET image analysis; conditions: in vivo, 0.5 h
[2] = tested on: Brain; assay: Drug uptake in brain of cold water-induced mouse stress model at 15 to 20 MBq, iv measured at 15 mins by PET image analysis; conditions: in vivo, 0.25 h
[3] = tested on: Brain; assay: Drug uptake in brain of normal mouse at 15 to 20 MBq, iv measured at 30 mins by PET image analysis; conditions: in vivo, 0.5 h
[4] = tested on: Brain; assay: Drug uptake in brain of normal mouse at 15 to 20 MBq, iv measured at 15 mins by PET image analysis; conditions: in vivo, 0.25 h
[5] = tested on: Brain; assay: Drug uptake in brain of normal mouse at 15 to 20 MBq, iv measured at 2 mins by PET image analysis; conditions: in vivo
[6] = tested on: Brain; assay: Drug uptake in brain of cold water-induced mouse stress model at 15 to 20 MBq, iv measured at 2 mins by PET image analysis; conditions: in vivo
[7] = tested on: Brain; assay: Drug uptake in brain of cold water-induced mouse stress model at 15 to 20 MBq, iv measured over 60 mins by PET image analysis relative to normal mouse; conditions: in vivo, 1 h

| Compound | Drug uptake [1] | SUV [2] | Drug uptake [3] | SUV [4] | SUV [5] | SUV [6] | fold change (FC) [7] |
| --- | --- | --- | --- | --- | --- | --- | --- |
| Cc1nnc(-c2ccc3occ(-c4ccc([S+]([11CH3])[O-])cc4)c3c2)o1 (stereo not given) | Not Active | 0.3 | Not Active | 0.3 | 0.5 | 0.8 |  |
| Cc1nnc(-c2ccc3occ(-c4ccc(S[11CH3])cc4)c3c2)o1 | Not Active | 0.7 | Not Active | 0.3 | 1 | 1.5 | 2 |
| Cc1nnc(-c2ccc3occ(-c4ccc(S([11CH3])(=O)=O)cc4)c3c2)o1 | Not Active | 0.4 | Not Active | 0.2 | 0.7 | 1.6 | 2 |
